# Source: patent US6426343B1, “Preparation and use of a specific GABA-Aα5 receptor ligand for treatment of Alzheimer's disease” (Merck Sharp & Dohme Ltd., priority 1995, dated 2002)
# How the values were obtained:
# α2β3γ2 = molecular target: T1, α2β3γ2 (Homo sapiens, UniProt P18507+P47869); experiment: Radioligand binding, membranes of stably transfected cells
# T1 construct: expressed in transfected cells
# α3β3γ2 = molecular target: T2, α3β3γ2 (Homo sapiens, UniProt P18507+P34903); experiment: as above
# T2 construct: expressed in transfected cells
# T2 sequence (P34903 29-492): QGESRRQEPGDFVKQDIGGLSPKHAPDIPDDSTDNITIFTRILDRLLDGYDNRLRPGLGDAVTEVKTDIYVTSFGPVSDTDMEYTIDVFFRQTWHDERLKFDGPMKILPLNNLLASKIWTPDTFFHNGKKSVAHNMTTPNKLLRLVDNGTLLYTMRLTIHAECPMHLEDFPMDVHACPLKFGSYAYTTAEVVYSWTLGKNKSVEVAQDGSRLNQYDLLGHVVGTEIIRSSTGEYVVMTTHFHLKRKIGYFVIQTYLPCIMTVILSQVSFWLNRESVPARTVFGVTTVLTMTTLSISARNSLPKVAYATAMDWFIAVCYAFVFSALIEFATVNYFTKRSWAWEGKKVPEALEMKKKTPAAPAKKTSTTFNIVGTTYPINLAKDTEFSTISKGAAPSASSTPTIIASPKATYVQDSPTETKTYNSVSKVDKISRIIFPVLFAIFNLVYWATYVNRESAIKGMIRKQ
# T2 sequence (P28472 26-473 partner): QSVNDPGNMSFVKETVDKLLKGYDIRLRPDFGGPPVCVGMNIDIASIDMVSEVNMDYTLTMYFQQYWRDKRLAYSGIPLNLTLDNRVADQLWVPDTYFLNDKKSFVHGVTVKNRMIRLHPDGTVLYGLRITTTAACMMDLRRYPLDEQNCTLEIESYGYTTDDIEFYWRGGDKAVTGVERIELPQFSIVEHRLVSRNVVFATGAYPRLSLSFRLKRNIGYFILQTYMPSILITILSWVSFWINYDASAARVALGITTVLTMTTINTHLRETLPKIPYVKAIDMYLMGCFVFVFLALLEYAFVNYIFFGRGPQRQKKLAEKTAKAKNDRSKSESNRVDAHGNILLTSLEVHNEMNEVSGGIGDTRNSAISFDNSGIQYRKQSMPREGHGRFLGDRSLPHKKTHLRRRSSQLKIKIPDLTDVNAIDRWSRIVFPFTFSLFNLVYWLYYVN
# T2 sequence (P18507 40-467 isoform P18507-1 limits assumed): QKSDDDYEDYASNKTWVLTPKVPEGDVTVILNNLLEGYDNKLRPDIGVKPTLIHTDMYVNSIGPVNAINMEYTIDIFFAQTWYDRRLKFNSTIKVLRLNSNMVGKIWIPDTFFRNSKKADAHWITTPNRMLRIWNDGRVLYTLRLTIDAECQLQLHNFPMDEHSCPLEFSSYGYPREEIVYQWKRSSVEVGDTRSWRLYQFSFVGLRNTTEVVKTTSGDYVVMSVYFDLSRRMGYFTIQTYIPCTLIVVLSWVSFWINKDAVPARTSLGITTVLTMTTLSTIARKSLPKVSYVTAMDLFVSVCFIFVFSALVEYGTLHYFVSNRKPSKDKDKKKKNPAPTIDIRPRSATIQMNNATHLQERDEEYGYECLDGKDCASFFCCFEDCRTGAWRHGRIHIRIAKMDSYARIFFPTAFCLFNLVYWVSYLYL
# Cerebellum (α1) = Cerebellum (α1) (Mus musculus, UniProt P22723+P62812); experiment: In vivo [3H]Ro 15-1788 binding, cerebellum
# Sequence of Cerebellum (α1) (P62812 28-455): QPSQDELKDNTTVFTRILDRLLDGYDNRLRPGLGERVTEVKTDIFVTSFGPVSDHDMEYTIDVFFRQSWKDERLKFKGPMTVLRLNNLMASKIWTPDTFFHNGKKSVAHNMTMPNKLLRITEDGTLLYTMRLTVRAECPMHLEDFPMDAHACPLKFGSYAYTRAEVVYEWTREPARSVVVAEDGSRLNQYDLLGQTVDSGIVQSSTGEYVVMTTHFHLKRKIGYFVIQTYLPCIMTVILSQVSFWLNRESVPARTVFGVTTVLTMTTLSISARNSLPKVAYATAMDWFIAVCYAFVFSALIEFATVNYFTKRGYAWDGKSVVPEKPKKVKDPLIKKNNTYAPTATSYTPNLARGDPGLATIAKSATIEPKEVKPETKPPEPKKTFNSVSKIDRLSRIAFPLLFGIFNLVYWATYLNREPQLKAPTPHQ
# Sequence of Cerebellum (α1) (P22723 39-474): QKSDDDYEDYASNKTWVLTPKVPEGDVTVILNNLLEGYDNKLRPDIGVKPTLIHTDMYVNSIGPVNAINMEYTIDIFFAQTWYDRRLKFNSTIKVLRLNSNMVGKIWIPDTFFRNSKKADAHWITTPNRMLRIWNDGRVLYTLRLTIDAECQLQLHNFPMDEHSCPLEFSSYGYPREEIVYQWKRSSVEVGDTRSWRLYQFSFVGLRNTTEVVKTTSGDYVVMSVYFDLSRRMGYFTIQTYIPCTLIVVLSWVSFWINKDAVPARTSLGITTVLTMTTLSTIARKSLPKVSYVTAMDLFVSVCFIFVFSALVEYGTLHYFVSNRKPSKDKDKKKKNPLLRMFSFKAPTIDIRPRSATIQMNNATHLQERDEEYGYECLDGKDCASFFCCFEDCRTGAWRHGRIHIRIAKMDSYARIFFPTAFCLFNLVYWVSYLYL
# Sequence of Cerebellum (α1) (P63137 25-474 partner limits assumed): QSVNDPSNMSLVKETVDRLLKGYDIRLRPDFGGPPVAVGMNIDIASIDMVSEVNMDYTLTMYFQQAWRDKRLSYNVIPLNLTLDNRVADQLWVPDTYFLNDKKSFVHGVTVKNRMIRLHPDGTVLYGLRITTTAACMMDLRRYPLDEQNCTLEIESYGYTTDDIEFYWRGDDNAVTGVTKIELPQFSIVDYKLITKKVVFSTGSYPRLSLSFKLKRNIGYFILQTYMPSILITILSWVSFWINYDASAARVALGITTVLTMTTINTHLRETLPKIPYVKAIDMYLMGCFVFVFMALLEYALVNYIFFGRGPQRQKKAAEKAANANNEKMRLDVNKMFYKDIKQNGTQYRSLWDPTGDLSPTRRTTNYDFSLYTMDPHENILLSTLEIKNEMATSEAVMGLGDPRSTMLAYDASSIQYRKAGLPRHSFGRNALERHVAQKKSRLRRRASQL
# Experimental: (§1) The in vivo binding of [^3H]Ro 15-1788 to mouse brain was performed essentially as described by Goeders and Kuhar (1985). Male Swiss-Webster mice received a 0.9% NaCl solution containing 50 mCi/kg of [^3H]Ro 15-1788 (0.05 ml/10 g of body weight) via the tail vein. […] Each mouse brain was then rapidly removed, homogenised in 5.0 ml of 50 mM Tris HCl, 5.0 mM EDTA, pH 7.4 at 4° C. using an ultra-turrax homogeniser for 10 s at setting 5. In a separate series of experiments different brain regions, selected for their preferential expression of particular GABA subtypes were also examined. Binding of [^3H]Ro 15-1788 to cerebellum is almost exclusively α1-like (Quirk et al, 1994), whereas binding to spinal cord is indicative of binding to receptors containing α2 or α3-subtypes, α1, α4 and α5 are rare or absent in this region (Wisden et al, 1992). Brains were rapidly dissected into forebrain and cerebellum and the spinal cord was also removed. Each forebrain was homogenised in 4.0 ml of buffer (approximately 14 ml/g wet weight of tissue), each cerebellum was homogenised in 1.0 ml of buffer (approximately 14 ml/g wet weight of tissue) and each spinal cord in 1.0 ml of buffer (approximately […] wet weight of tissue). Volumes ([…]) of homogenate were filtered rapidly through GF/B filters, washed with 2×5.0 ml volumes of ice-cold buffer and the residual radioactivity was counted by liquid scintillation spectroscopy.
# (§2) Mice were injected intraperitoneally with FG 8094, 10 mg/kg or 1 mg/kg, 30 minutes prior to sacrifice and [^3H]Ro 15-1788 (0.1 mCi/g). Brain regions were dissected, homogenised and filtered as described in methods.
# [1] = test system: benzodiazepine binding site of α1-containing GABA receptors; experiment: In vivo [3H]Ro 15-1788 binding, cerebellum; settings: male, Swiss-Webster, mouse, cerebellum, intraperitoneal, 1 mg/kg, probe [3H]Ro 15-1788
# Experimental: as §1, §2
# α5-containing receptors = experiment: Occupancy of α5-containing receptors calculated by Clarke's equation; type: in vivo, mouse
# Experimental: If it is assumed that the percentage inhibition of in vivo [^3H]Ro 15-1788 binding is a measure of receptor occupancy then the concentration at the receptor site in brain can be calculated according to Clarke's equation (occupancy=[drug]/[drug]+Ki). Substituting the occupancy determined at α1 and α2/3-containing receptors, the concentration of FG 8094 available at BZ binding sites in […] is 7.8 nM and 13.2 nM respectively. Occupancy at α5-containing receptors cannot be measured directly because of the low abundance of the receptor, but it can be calculated using the concentration of drug and binding affinity using Clarke's equation. This predicts 95-97 % occupancy of α5-containing receptors 30 min after administration of FG 8094 (1 mg/kg).
# male Sprague Dawley rats = experiment: Pro-convulsant testing, acute treatment, PTZ infusion; type: in vivo, rat; settings: 0.5-4.0 mg/kg IP 30 min prior to PTZ infusion
# Experimental: Sixty naive male Sprague Dawley rats (225-265 g) housed in groups of four with food and water freely available, served as subjects. The rats were assigned to one of six groups and given: Vehicle or 0.5, 1.0, 2.0, 4.0 mg/kg of […] or 10.0 mg/kg of the non-selective receptor inverse agonist, CGS 8216, a known pro-convulsant agent. Vehicle, FG 8094 or CGS 8216 was administered IP 30 min prior to an infusion of the convulsant, pentylenetetrazole (PTZ, 40 mg/ml). PTZ was infused into the tail vein of the rat at the rate of 1.0 ml/min. The latency to clonic and tonic seizure were recorded and the threshold to each was calculated using the equation: Threshold dose=infusion rate (ml/s)×PTZ (mg/ml)×(1000/rats weight)×latency(s).
# α1β3γ2 = α1β3γ2 (Homo sapiens, UniProt P14867+P18507); experiment: biochemical
# Sequence of α1β3γ2 (P14867 28-456): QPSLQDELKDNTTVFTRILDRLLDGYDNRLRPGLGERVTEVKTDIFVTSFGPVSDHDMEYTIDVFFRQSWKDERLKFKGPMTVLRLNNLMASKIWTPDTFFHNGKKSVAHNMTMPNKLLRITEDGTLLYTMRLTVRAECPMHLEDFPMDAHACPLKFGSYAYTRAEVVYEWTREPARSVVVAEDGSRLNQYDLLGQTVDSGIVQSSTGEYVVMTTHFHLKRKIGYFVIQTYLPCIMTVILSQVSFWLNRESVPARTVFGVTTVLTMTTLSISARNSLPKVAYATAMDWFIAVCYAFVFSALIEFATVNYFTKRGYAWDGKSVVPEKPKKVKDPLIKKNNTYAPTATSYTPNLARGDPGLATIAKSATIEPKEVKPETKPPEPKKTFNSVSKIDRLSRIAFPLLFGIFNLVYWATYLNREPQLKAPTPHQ
# Sequence of α1β3γ2 (P28472 26-473 partner): as the sequence (P28472 26-473 partner) above
# Sequence of α1β3γ2 (P18507 40-467 isoform P18507-1 limits assumed): as the sequence (P18507 40-467 isoform P18507-1 limits assumed) above
# Experimental: Radioligand binding studies were carried out using membranes prepared from cells stably transfected with the following subunit combinations:—α1β3γ2, α2β3γ2, α3β3γ2, α5β3γ2, α6β3γ2. Incubations were carried out using 20-100 mg of membrane protein in a total volume of 0.5 ml in 10 mM Tris-HCl, 1 mM EDTA pH 7.4 for one hour at room temperature prior to termination through Whatman GF/C filters followed by 3×3 ml washes with 5 mM Tris-HCl pH 7.5 and scintillation counting. […] Ki values were calculated according to the Cheng-Prussof equation.
# Ki values were calculated according to the Cheng-Prussof equation. Data shown are mean±SEM values for 3-6 determinations.
# rats = experiment: Watermaze experiment with SC pellet of FG 8094
# [2] = Blood levels after subcutaneous pellet implantation; settings: 1.5 mg in hydroxy propylmethylcellulose pellet, rats
# [3] = ip, read-out: percentage inhibition of in vivo [3H]Ro 15-1788 binding, cerebellum
# T1 sequence (P47869 29-451): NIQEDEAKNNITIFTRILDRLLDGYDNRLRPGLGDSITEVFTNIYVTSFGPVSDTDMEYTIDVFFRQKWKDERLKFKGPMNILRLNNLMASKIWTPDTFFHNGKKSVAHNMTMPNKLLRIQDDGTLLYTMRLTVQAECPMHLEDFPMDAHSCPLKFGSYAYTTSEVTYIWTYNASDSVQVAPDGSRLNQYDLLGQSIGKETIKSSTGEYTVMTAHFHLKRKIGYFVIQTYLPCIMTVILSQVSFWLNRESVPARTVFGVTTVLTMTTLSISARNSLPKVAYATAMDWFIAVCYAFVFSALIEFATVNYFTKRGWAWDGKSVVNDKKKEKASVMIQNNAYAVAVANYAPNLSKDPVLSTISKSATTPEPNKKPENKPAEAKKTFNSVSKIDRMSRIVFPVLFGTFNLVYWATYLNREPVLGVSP
# T1 sequence (P28472 26-473 partner): as the sequence (P28472 26-473 partner) above
# T1 sequence (P18507 40-467 isoform P18507-1 limits assumed): as the sequence (P18507 40-467 isoform P18507-1 limits assumed) above
structure (smiles),measurement,setting,value
"CCOC(=O)c1ncn2c1[C@@H]1CCCN1C(=O)c1cc(OC)ccc1-2 [FG 8094, 9H-imidazo[1,5-a]pyrrolo[2,1-C][1,4]benzodiazepine-1-carboxylic acid, 11, 12, 13, 13a-tetrahydro-7-methoxy-9-oxo-, ethyl ester, (S)-(9CI)]",Ki,α2β3γ2,27.4 ± 2.5 nM
same,Ki,α3β3γ2,24.5 ± 2 nM
same,inhibition at 1 mg/kg,Cerebellum (α1); [3],13.8 ± 4.9%
same,inhibition at 10 mg/kg,Cerebellum (α1); [3],55 ± 6.9%
same,receptor occupancy at 1 mg/kg,Cerebellum (α1); read-out: occupancy of α1 receptors,< 15%
same,concentration at 30 min,[1],7.8 nM
same,occupancy of α5-containing receptors,α5-containing receptors; 1.0 mg/kg,virtually all
same,predicted occupancy of α5-containing receptors,"α5-containing receptors; 30 min after 1 mg/kg, Clarke's equation",95-97%
same,pro-convulsant effects,male Sprague Dawley rats,devoid of pro-convulsant effects
same,Ki,α1β3γ2,48.5 ± 6 nM
same,convulsions or sedation,rats; SC pellet,did not cause convulsions or sedation
same,watermaze performance,"rats; pellet implanted SC 2 hrs before, training on one day",improved performance
same,blood levels,[2],greater than 100 ng/ml
same,duration of blood levels greater than 100 ng/ml,[2],more than 6 hours
